≈ marks a conversion by molar mass, not a printed value. Residues, ends and D or L forms follow the SMILES beside them. *: point of attachment. Palmitoyl = CCCCCCCCCCCCCCCC(=O)*; Myristoyl = CCCCCCCCCCCCCC(=O)*; Lauroyl = CCCCCCCCCCCC(=O)*
How the values were obtained:
[1] = test system: Escherichia coli ATCC 25922; format: cell-based; conditions: ATCC 25922, 18 h
Protocol: (§1) The minimum inhibitory concentration (MIC) was determined according to the procedure recommended by the Clinical Laboratory Standards Institute guidelines. Reference strains of bacteria: Staphylococcus aureus ATCC 25923, Staphylococcus epidermidis ATCC 14990, Escherichia coli ATCC 25922, Pseudomonas aeruginosa ATCC 9027, and fungus Candida albicans ATCC 10231 were obtained from Polish Collection of Microorganisms (PCM, Polish Academy of Sciences, Wroclaw, Poland). […] The plates with the compounds were incubated for 18 h at 37 °C for bacteria and 48 h at 25 °C for fungi. The minimum inhibitory concentration was assumed as the lowest concentration of a lipopeptide at which the observable growth was inhibited.

[2] = test system: Pseudomonas aeruginosa ATCC 9027; format: cell-based; conditions: ATCC 9027, 18 h
Protocol: as §1

[3] = test system: Staphylococcus epidermidis ATCC 14990; format: cell-based; conditions: ATCC 14990, 18 h
Protocol: as §1

[4] = test system: Staphylococcus aureus ATCC 25923; format: cell-based; conditions: ATCC 25923, 18 h
Protocol: as §1

[5] = test system: Candida albicans ATCC 10231; format: cell-based; conditions: ATCC 10231, 48 h
Protocol: as §1

[6] = test system: human keratinocytes HaCaT; format: cell-based; conditions: 48 h
Protocol: The cytotoxicity of the compounds was evaluated on the basis of a tetrazolium salt reduction test (MTT) performed along the lines of human keratinocytes HaCaT. The keratinocytes were planted in 96-well plates in a medium supplemented with serum. After 24 h, the medium was changed to a serum-free DMEM one containing graded concentrations of peptides. The cells were incubated with peptides for 48 h. Thereafter, MTT was added in order to reach a final concentration of 0.5 mg/mL, and the plates were incubated at 37 °C for 4 h. Then, the MTT reading was analysed using a plate reader. The absorbance at 630 nm (background absorbance) was subtracted from that at 570 nm for each well.

[7] = different lipopeptide concentrations

CCCCCCCCCCCC(=O)N[C@@H](CCCCN)C(=O)N[C@@H](CCCCN)C(=O)N[C@@H](CCCCN)C(=O)N[C@@H](CCCCN)C(N)=O [Peptide C12-KKKK-NH2] (Lauroyl-KKKK-NH2)
MIC E. coli [1]: 512 µg/mL (≈ 719 µM)
MIC P. aeruginosa [2]: 256 µg/mL (≈ 360 µM)
MIC S. epidermidis [3]: 16 µg/mL (≈ 22.5 µM)
MIC S. aureus [4]: 64 µg/mL (≈ 89.9 µM)
MIC C. albicans [5]: >512 µg/mL

CCCCCCCCCCCC(=O)N[C@@H](CCCCN)C(=O)N[C@@H](CCCNC(=N)N)C(=O)N[C@@H](CCCCN)C(=O)N[C@@H](CCCCN)C(N)=O [Peptide C12-KRKK-NH2] (Lauroyl-KRKK-NH2)
MIC E. coli [1]: 512 µg/mL (≈ 692 µM)
MIC P. aeruginosa [2]: 512 µg/mL (≈ 692 µM)
MIC S. epidermidis [3]: ≤1 µg/mL
MIC S. aureus [4]: 64 µg/mL (≈ 86.5 µM)
MIC C. albicans [5]: 512 µg/mL (≈ 692 µM)

CCCCCCCCCCCCCC(=O)N[C@@H](CCCCN)C(=O)N[C@@H](CCCCN)C(=O)N[C@@H](CCCCN)C(=O)N[C@@H](CCCCN)C(N)=O [Peptide C14-KKKK-NH2] (Myristoyl-KKKK-NH2)
MIC E. coli [1]: 128 µg/mL (≈ 173 µM)
MIC P. aeruginosa [2]: 64 µg/mL (≈ 86.5 µM)
MIC S. epidermidis [3]: 2 µg/mL (≈ 2.7 µM)
MIC S. aureus [4]: 32 µg/mL (≈ 43.2 µM)
MIC C. albicans [5]: 128 µg/mL (≈ 173 µM)
IC50 on human keratinocytes (HaCaT) [6]: 15.63 ± 0.74 µg/mL (≈ 21.1 µM)

CCCCCCCCCCCCCC(=O)N[C@@H](CCCCN)C(=O)N[C@@H](CCCCN)C(=O)N[C@@H](CCCCN)C(=O)N[C@@H](CCCNC(=N)N)C(N)=O [Peptide C14-KKKR-NH2] (Myristoyl-KKKR-NH2)
MIC E. coli [1]: 128 µg/mL (≈ 167 µM)
MIC P. aeruginosa [2]: 128 µg/mL (≈ 167 µM)
MIC S. epidermidis [3]: ≤1 µg/mL
MIC S. aureus [4]: 32 µg/mL (≈ 41.7 µM)
MIC C. albicans [5]: 128 µg/mL (≈ 167 µM)
IC50 on human keratinocytes (HaCaT) [6]: 32.5 ± 10.0 µg/mL (≈ 42.3 µM)

CCCCCCCCCCCCCC(=O)N[C@@H](CCCCN)C(=O)N[C@@H](CCCNC(=N)N)C(=O)N[C@@H](CCCCN)C(=O)N[C@@H](CCCCN)C(N)=O [Peptide C14-KRKK-NH2] (Myristoyl-KRKK-NH2)
MIC E. coli [1]: 64 µg/mL (≈ 83.3 µM)
MIC P. aeruginosa [2]: 64 µg/mL (≈ 83.3 µM)
MIC S. epidermidis [3]: ≤1 µg/mL
MIC S. aureus [4]: 16 µg/mL (≈ 20.8 µM)
MIC C. albicans [5]: 128 µg/mL (≈ 167 µM)
IC50 on human keratinocytes (HaCaT) [6]: 20.38 ± 4.12 µg/mL (≈ 26.5 µM)

CCCCCCCCCCCCCCCC(=O)N[C@@H](CCCCN)C(=O)NCC(=O)N[C@@H](CCCCN)C(N)=O [Peptide C16-KGK-NH2] (Palmitoyl-Lys-Gly-Lys-NH2)
MIC E. coli [1]: 8 µg/mL (≈ 14.1 µM)
MIC P. aeruginosa [2]: 64 µg/mL (≈ 113 µM)
MIC S. epidermidis [3]: 4 µg/mL (≈ 7.03 µM)
MIC S. aureus [4]: 16 µg/mL (≈ 28.1 µM)
MIC C. albicans [5]: 8 µg/mL (≈ 14.1 µM)
IC50 on human keratinocytes (HaCaT) [6]: 7.41 ± 3.05 µg/mL (≈ 13 µM)

CCCCCCCCCCCCCCCC(=O)N[C@@H](CCCCN)C(=O)N[C@@H](CCCCN)C(N)=O [Peptide C16-KK-NH2]
MIC E. coli [1]: 8 µg/mL (≈ 15.6 µM)
MIC P. aeruginosa [2]: 128 µg/mL (≈ 250 µM)
MIC S. epidermidis [3]: 4 µg/mL (≈ 7.82 µM)
MIC S. aureus [4]: 8 µg/mL (≈ 15.6 µM)
MIC C. albicans [5]: 4 µg/mL (≈ 7.82 µM)
IC50 on human keratinocytes (HaCaT) [6]: 2.5 ± 0.8 µg/mL (≈ 4.88 µM)

CCCCCCCCCCCCCCCC(=O)N[C@@H](CCCCN)C(=O)N[C@@H](CCCCN)C(=O)N[C@@H](CCCCN)C(=O)N[C@@H](CCCCN)C(N)=O [Peptide C16-KKKK-NH2] (Palmitoyl-KKKK-NH2)
MIC E. coli [1]: 16 µg/mL (≈ 20.8 µM)
MIC P. aeruginosa [2]: 16 µg/mL (≈ 20.8 µM)
MIC S. epidermidis [3]: 8 µg/mL (≈ 10.4 µM)
MIC S. aureus [4]: 8 µg/mL (≈ 10.4 µM)
MIC C. albicans [5]: 16 µg/mL (≈ 20.8 µM)
IC50 on human keratinocytes (HaCaT) [6]: 23.52 ± 1.30 µg/mL (≈ 30.6 µM)

CCCCCCCCCCCCCCCC(=O)N[C@@H](CCCCN)C(=O)NCCC(=O)N[C@@H](CCCCN)C(N)=O [Peptide C16-KβAK-NH2]
MIC E. coli [1]: 64 µg/mL (≈ 110 µM)
MIC P. aeruginosa [2]: 64 µg/mL (≈ 110 µM)
MIC S. epidermidis [3]: 2 µg/mL (≈ 3.43 µM)
MIC S. aureus [4]: 128 µg/mL (≈ 220 µM)
MIC C. albicans [5]: 4 µg/mL (≈ 6.86 µM)
IC50 on human keratinocytes (HaCaT) [6]: 25.11 ± 6.17 µg/mL (≈ 43.1 µM)

CCCCCCCCCCCCCCCC(=O)N[C@@H](CCCNC(=N)N)C(=O)N[C@@H](CCCNC(=N)N)C(=O)N[C@@H](CCCNC(=N)N)C(=O)N[C@@H](CCCNC(=N)N)C(N)=O [Peptide C16-RRRR-NH2] (Palmitoyl-RRRR-NH2)
aggregate size from self-diffusion coefficients (PFG NMR), compared with C16-KKKK-NH2 [7]: distinctly larger aggregates

CCCCCCCCCCCCCCCCCC(=O)N[C@@H](CCCCN)C(=O)N[C@@H](CCCCN)C(N)=O [Peptide C18-KK-NH2]
MIC E. coli [1]: 128 µg/mL (≈ 237 µM)
MIC P. aeruginosa [2]: 64 µg/mL (≈ 119 µM)
MIC S. epidermidis [3]: 4 µg/mL (≈ 7.41 µM)
MIC S. aureus [4]: 64 µg/mL (≈ 119 µM)
MIC C. albicans [5]: 4 µg/mL (≈ 7.41 µM)
IC50 on human keratinocytes (HaCaT) [6]: 0.69 ± 0.001 µg/mL (≈ 1.28 µM)

— article PMC9686977, “Understanding the Role of Self-Assembly and Interaction with Biological Membranes of Short Cationic Lipopeptides in the Effective Design of New Antibiotics” (Antibiotics, 2022)
